Reference: US20230398125A1, “TREATING HEPATITIS” (Albireo AB, priority 2022, published 2023)
Structures can show the parent of a compound that is named as a salt. Where two headings read alike, the source gives them in different places.

What was measured:
ASBT = target: T1, ASBT (Homo sapiens, UniProt Q12908); assay: [3H]taurocholate uptake in cell lines expressing human ASBT (Compound 2); format: cell-based
T1 construct: expressed in transfected cells
T1 sequence (Q12908 1-348): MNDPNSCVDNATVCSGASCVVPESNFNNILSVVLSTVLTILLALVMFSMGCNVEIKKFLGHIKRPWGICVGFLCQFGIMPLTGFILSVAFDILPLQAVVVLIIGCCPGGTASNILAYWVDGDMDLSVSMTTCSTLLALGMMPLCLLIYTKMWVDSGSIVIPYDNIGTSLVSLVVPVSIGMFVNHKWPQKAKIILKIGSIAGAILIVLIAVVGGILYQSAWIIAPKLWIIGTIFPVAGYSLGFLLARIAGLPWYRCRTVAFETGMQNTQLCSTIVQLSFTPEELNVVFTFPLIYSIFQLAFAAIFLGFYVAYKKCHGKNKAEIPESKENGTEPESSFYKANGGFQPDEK
Experimental: (§1) NTCP and the related BA transporter apical sodium-dependent BA transporter (ASBT) from human were expressed in cell lines. Inhibition by Compound 2 was studied using [^3]taurocholate as substrate. Cryopreserved human hepatocytes infected with a clinical isolate of HBV were used for infection experiments. Two female non-human primates (NHPs) were dosed with Compound 2 via oral gavage at dose levels of Compound 2 ranging between 3-30 mg/kg once daily for 5 days. Total serum, urine, and fecal BAs were analyzed enzymatically and Compound 2 plasma concentrations were assessed via liquid chromatography-tandem mass spectrometry. The oral pharmacokinetics of Compound 2 was also studied in mice, rats, and dogs.

[1] = Serum, urine and fecal bile acids and C4 in non-human primates after oral dosing; format: in vivo; conditions: NHPs
Experimental: as §1

[2] = Plasma concentrations of Compound 2 in non-human primates; format: in vivo; conditions: NHPs, 3-30 mg/kg oral once daily for 5 days
Experimental: as §1

[3] = Oral pharmacokinetics of Compound 2 in mice, rats and dogs; format: in vivo; conditions: across all species
Experimental: as §1

HBV (clinical isolate) = assay: HBV infection of cryopreserved human hepatocytes (Compound 2); format: cell-based; conditions: Hepatitis B virus, Hepatocyte
Experimental: as §1

Human NTCP = target: T2, Human NTCP (Homo sapiens, UniProt Q14973); assay: [3H]taurocholate uptake in cell lines expressing human NTCP (Compound 2); format: cell-based
T2 construct: expressed in transfected cells; peptide purchased from Pharmaron
T2 sequence (Q14973 1-349): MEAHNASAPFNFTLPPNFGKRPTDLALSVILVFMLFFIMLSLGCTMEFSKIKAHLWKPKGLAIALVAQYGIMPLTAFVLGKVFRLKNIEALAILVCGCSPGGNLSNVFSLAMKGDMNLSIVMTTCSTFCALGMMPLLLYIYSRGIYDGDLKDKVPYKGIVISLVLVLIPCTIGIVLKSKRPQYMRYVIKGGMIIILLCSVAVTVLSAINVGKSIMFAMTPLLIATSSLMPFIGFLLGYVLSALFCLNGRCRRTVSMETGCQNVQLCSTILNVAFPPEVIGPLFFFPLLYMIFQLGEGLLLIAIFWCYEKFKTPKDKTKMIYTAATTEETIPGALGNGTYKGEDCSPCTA
Experimental: as §1

human hepatocytes = assay: Cell viability of human hepatocytes (Compound 2); format: cell-based
[4] = tested on: HBV (HepG2 AD38 genotype D); assay: HBV infection of primary human hepatocytes, extracellular HBV DNA by qPCR; format: cell-based, hepatitis B virus; conditions: for EC50: Hepatitis B virus, read-out: EC50
[5] = XTT cell toxicity in primary human hepatocytes; format: cell-based; conditions: human, primary human hepatocytes, read-out: TC50
Experimental: Multiplicity of Infection (MOI) is defined as the number of HBV genome equivalents, as determined by the qPCR quantitation, added per cell in the respective growth format. The overnight media was removed from the cells and replaced with 190 μL of new, serum-free HI media/4% PEG8000 and 10 μL of the diluted virus stock (HepG2 AD38 genotype D) for a MOI of 500. Medium alone was added to the cells containing compound for the parallel cytotoxicity evaluation. After 18 hours of virus infection, the cells were gently washed five times with DPBS, followed by a new addition of 200 μL HI media containing compounds on day 1, day 4 and day 7 post-infection. In one set of experiments (Study #01), the effect of giving compound 18 h prior to infection, versus 18 h post-infection was studied. The supernatant removed from the cytotoxicity plates at each medium change was stored at −20° C. for shipment to the client. The supernatant was collected at 10 days post infection and stored at −20° C. for total extracellular HBV DNA copy number to be quantitatively determined by qPCR. Cell viability was measured by XTT tetrazolium dye at day 10 for the cytotoxicity plates.
Following incubation at 37° C. in a 5% CO2 incubator for ten days, the test plates were stained with the tetrazolium dye XTT (2,3-bis(2-methoxy-4-nitro-5-sulfophenyl}-5-[(phenylamino)carbonyl]-2H-tetrazolium hydroxide). XTT-tetrazolium was metabolized by the mitochondrial enzymes of metabolically active cells to a soluble formazan product. XTT solution was prepared daily as a stock of 1 mg/mL in RPMI1640. Phenazine methosulfate (PMS) solution was prepared at 0.15 mg/mL in PBS and stored in the dark at −20° C.
XTT/PMS stock was prepared immediately before use by adding 40 μL of PMS per mL of XTT solution. Fifty microliters of XTT/PMS were added to each well of the plate and the plate was re-incubated for 4 hours at 37° C. Plates were sealed with adhesive plate sealers and shaken gently or inverted several times to mix the soluble formazan product and the plate was read spectrophotometrically at 450/650 nm with a Molecular Devices Vmax plate reader.
Each concentration of inhibitor and controls were analyzed in triplicate for HBV DNA copies and for cellular toxicity, respectively. From control wells without inhibitor, the mean of these three replicates was calculated and the HBV DNA mean was set to 100% viral control and the XTT mean was set to 100% cell viability. The effect of compound was then expressed as % of viral control and % cell viability, respectively.

CCCCC1CN(c2ccc(F)cc2)c2cc(SC)c(OCC(C)(C)C(=O)O)cc2S(=O)(=O)N1C (stereo not drawn) [Compound 2, 3-((3-butyl-5-(4-fluorophenyl)-2-methyl-7-(methylthio)-1,1-dioxido-2,3,4,5-tetrahydro-1,2,5-benzothiadiazepin-8-yl)oxy)-2,2-dimethylpropanoic acid]
IC50 (ASBT): 193 nM
levels of fecal BAs [1]: did not change
urine excretion of BAs compared with vehicle [1]: tended to increase
serum BAs at 24 hours post-dose ([1]; 10 mg/kg): returned to baseline
serum BAs at 24 hours post-dose ([1]; 30 mg/kg): still being elevated
duration of increases in serum BAs ([1]; 10 and 30 mg/kg, Day 1 and Day 5): at least 8 hours
levels of 7-alpha-hydroxy-4-cholesten-3-one (C4) ([1]; after 5 days of repeated dosing): did not change
serum BAs ([1]; oral dosing, Day 1 and Day 5): increased in a dose-dependent manner
plasma exposure versus dose [2]: increased with dose
oral bioavailability [3]: Good oral bioavailability
IC50 (HBV (clinical isolate)): 13.5 nM
IC50 (Human NTCP): 3.4 nM
effect on cell viability (human hepatocytes): without affecting cell viability

CC(C)OC(=O)OCOP(=O)(CO[C@H](C)Cn1cnc2c(N)ncnc21)OCOC(=O)OC(C)C [Tenofovir disoproxil fumarate, reference compound]
EC50 ([4]; HepG2, 18 h, Study #01, compound given 18 h post-infection): 20 nM
EC50 ([4]; HepG2, Study #01, compound given 18 h prior to infection, PHH, HBV DNA): 43 nM
EC50 ([4]; HepG2, Study #02, PHH): 64 nM
EC50 ([4]; HepG2, Study #03, PHH): 59 nM
antiviral activity/potency when given 18 h post-infection ([4]; Study #01): maintained
Max inhibition ([4]; Study #01, 18 h post-infection): 97%
Max inhibition ([4]; Study #01, 18 h prior to infection): 96%
Max inhibition ([4]; Study #02): 68%
Max inhibition ([4]; Study #03): 61%
Max inhibition ([4]; Study #03, listed as tenofovir): ~60%
CC50 at 10 days ([5]; Study #01, 18 h post-infection section): > 1000 nM
CC50 at 10 days ([5]; Study #01, XTT, PHH): > 1000 nM
CC50 at 10 days ([5]; Study #02): > 100 nM
CC50 at 10 days ([5]; Study #03): > 100 nM
